Data published in patent US6586425B2, “Cytoskeletal active agents for glaucoma therapy” (Wisconsin Alumni Research Foundation, priority 1996, dated 2003).
“And” between values parts separate entries of the source, which are not always exact repeats. Equal entries are not always repeated. “Also recorded” adds a separate entry of the source.

What was measured:
living monkey eye [1] = conditions: in vivo
[2] = tested on: normal living monkey eyes; test: Miotic and accommodative response to intramuscular pilocarpine; format: in vivo, monkeys
[3] = tested on: ciliary muscle-disinserted monkey eyes; test: Outflow facility in ciliary muscle-disinserted eyes; format: in vivo, cynomolgus and rhesus monkeys; conditions: H-7 300 μM, nine monkeys
ciliary muscle strip = test: Pilocarpine-induced contraction of isolated ciliary muscle strip (muscle chamber); parameters: species or system rhesus monkeys (Macaca mulatta)
living monkey eye [4] = test: Pupil size and refraction after topical H-7; format: in vivo, cynomolgus monkeys; conditions: H-7 150 mM topical, six monkeys
corneal endothelium = conditions: cynomolgus monkey, in vivo

## CN[C@@H]1C[C@H]2O[C@@](C)([C@@H]1OC)n1c3ccccc3c3c4c(c5c6ccccc6n2c5c31)C(=O)NC4 [staurosporine]
Living monkey eye [1]
  Facility PRx, Rx/Cont: 1.99 ± 0.43 and 1.03 ± 0.17 and 1.57 ± 0.25

## CC1CNCCN1S(=O)(=O)c1cccc2cnccc12 (stereo not shown) [H-7, 1-(5-isoquinolinyl-sulfonyl)-2-methylpiperazine]
[2]; H-7 intracameral (~300 μM) or intravitreal (300 μM-1.2 mM)
  effect on pilocarpine-induced miosis: inhibits ipsilateral pilocarpine-induced miosis
[2]; H-7 intracameral or intravitreal
  effect on pupil after phenylephrine: dilates the ipsilateral pupil even beyond the effect of phenylephrine
[3]
  facility increase, ciliary muscle disinserted vs non-disinserted eyes: essentially identical proportional increase in outflow facility
Ciliary muscle strip
  selectivity longitudinal vs circular vector: no selectivity for one vector over the other
Ciliary muscle strip; 10 μM pilocarpine + 300 μM H-7
  time to inhibition of the initial pilocarpine contraction: ≤ 10 min
Ciliary muscle strip; 90 minute washout after 300 μM H-7
  contraction to 10 μM pilocarpine after washout: no contraction in either vector
Ciliary muscle strip; 2.5 hours after removal of H-7
  contraction to 10 μM pilocarpine after washout: sluggish contraction in both vectors
Living monkey eye [4]
  effect on pupil size: did have an effect on pupil size
  effect on refraction: no statistically significant difference in refraction
Corneal endothelium
  change in corneal endothelial cell counts: did not reveal a statistical change in cell counts
  corneal endothelial cell morphology: no morphological changes in cells were observed
Living monkey eye [1]
  drug-free baseline facility vs first baseline: significant increase in facility

## C/C1=C\[C@H](C)C[C@H](C)OC(=O)C[C@H](c2ccc(O)cc2)NC(=O)[C@@H](Cc2c(Br)[nH]c3ccccc23)N(C)C(=O)[C@H](C)NC(=O)[C@@H](C)C1 [Jas]
Living monkey eye [1]
  effect of Jas on Lat B-induced facility increase: did not affect the 200 nM Lat B-induced facility increase; also recorded: did not affect the 60 nM Lat B-induced facility increase
  effect on outflow facility: no significant effect on outflow facility
  outflow facility increase, adjusted for baseline and resistance washout in contralateral eyes: 157±57%
